Measured values: ChEMBL document CHEMBL5331086, “Natural product evodiamine-inspired medicinal chemistry: Anticancer activity, structural optimization and structure-activity relationship” (Eur J Med Chem, 2023)
In brackets after ≈: the same amount, converted by molar mass.

Legend:
HCT-116 [1] = assay: Antiproliferative activity against human HCT-116 cells; assay type: functional, cell-based
Histone deacetylase 1 = Histone deacetylase 1 (Homo sapiens, UniProt Q13547); assay: Inhibition of HDAC1 (unknown origin)
Chain of Histone deacetylase 1 (Q13547 whole entry): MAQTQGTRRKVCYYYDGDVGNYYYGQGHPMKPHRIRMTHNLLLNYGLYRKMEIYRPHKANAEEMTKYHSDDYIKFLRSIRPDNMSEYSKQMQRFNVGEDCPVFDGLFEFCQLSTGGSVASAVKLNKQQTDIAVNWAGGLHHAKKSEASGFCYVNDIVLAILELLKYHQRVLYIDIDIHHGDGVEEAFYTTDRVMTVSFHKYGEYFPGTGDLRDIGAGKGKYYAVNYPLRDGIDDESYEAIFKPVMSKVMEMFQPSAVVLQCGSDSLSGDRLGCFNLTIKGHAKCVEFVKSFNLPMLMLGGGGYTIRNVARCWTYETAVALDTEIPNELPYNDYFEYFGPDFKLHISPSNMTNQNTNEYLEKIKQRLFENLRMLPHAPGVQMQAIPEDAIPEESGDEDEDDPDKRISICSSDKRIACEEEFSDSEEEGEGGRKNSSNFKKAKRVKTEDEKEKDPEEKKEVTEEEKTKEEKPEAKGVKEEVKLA

Histone deacetylase 2 = Histone deacetylase 2 (Homo sapiens, UniProt Q92769); assay: Inhibition of HDAC2 (unknown origin)
Chain of Histone deacetylase 2 (Q92769 whole entry): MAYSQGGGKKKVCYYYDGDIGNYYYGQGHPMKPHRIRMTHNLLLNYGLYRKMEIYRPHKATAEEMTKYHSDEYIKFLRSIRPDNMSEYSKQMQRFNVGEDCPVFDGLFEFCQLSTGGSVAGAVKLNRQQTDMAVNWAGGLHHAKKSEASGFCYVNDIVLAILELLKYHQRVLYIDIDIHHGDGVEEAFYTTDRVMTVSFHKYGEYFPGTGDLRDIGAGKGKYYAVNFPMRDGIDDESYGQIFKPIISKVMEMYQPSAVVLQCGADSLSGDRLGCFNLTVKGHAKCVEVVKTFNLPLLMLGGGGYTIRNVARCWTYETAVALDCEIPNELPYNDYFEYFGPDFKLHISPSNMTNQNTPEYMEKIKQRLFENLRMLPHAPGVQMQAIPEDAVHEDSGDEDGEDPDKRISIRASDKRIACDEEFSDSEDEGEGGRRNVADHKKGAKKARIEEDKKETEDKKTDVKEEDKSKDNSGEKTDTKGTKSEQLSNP

HCCLM9 = assay: Antiproliferative activity against human HCCLM9 cells assessed as reduction in cell growth incubated for 48 hrs by CCK-8 assay; assay type: functional, cell-based; conditions: HCCLM9, 48 h
Huh-7 = assay: Antiproliferative activity against human Huh-7 cells assessed as reduction in cell viability incubated for 48 hrs by CCK-8 assay; assay type: functional, cell-based; conditions: Huh-7, 48 h
HepG2 [2] = assay: Antiproliferative activity against human HepG2 cells assessed as reduction in cell viability incubated for 48 hrs by CCK-8 assay; assay type: functional, cell-based; conditions: HepG2, 48 h
MDA-MB-231 = assay: Antiproliferative activity against human MDA-MB-231 cells assessed as reduction in cell viability incubated for 48 hrs by CCK-8 assay; assay type: functional, cell-based; conditions: MDA-MB-231, 48 h
SW-620 = assay: Cytotoxicity against human SW-620 cells assessed as reduction in cell viability incubated for 48 hrs by CCK-8 assay; assay type: functional, cell-based; conditions: SW-620, 48 h
HGC-27 = assay: Antiproliferative activity against human HGC-27 cells assessed as reduction in cell viability measured after 48 hrs by MTT assay; assay type: functional, cell-based; conditions: HGC-27, 48 h
HCT-116 [3] = assay: Cytotoxicity against human HCT-116 cells assessed as reduction in cell viability incubated for 72 hrs by MTT assay; assay type: functional, cell-based; conditions: HCT-116, 72 h
A549 [4] = assay: Cytotoxicity against human A549 cells assessed as reduction in cell viability measured after 72 hrs by MTT assay; assay type: functional, cell-based; conditions: A549, 72 h
MDA-MB-435 [5] = assay: Cytotoxicity against human MDA-MB-435 cells assessed as reduction in cell viability incubated for 72 hrs by MTT assay; assay type: functional, cell-based; conditions: MDA-MB-435, 72 h
MCF7 [6] = assay: Antiproliferative activity against human MCF7 cells assessed as reduction in cell viability incubated for 48 hrs by MTT assay; assay type: functional, cell-based; conditions: MCF7, 48 h
[7] = Solubility of compound in water incubated for 24 hrs by HPLC-UV analysis; assay type: physicochemical
HCT-116 [8] = assay: Antiproliferative activity against human HCT-116 cells assessed as reduction in cell viability incubated for 48 hrs by CCK-8 assay; assay type: functional, cell-based; conditions: HCT-116, 48 h
A549 [9] = assay: Cytotoxicity against human A549 cells assessed as reduction in cell viability incubated for 72 hrs by MTT assay; assay type: functional, cell-based; conditions: A549, 72 h
PC-9 = assay: Cytotoxicity against human PC-9 cells assessed as reduction in cell viability incubated for 72 hrs by MTT assay; assay type: functional, cell-based; conditions: PC-9, 72 h
MCF7 [10] = assay: Cytotoxicity against human MCF7 cells assessed as reduction in cell viability measured after 72 hrs by MTT assay; assay type: functional, cell-based; conditions: MCF7, 72 h
PC-3 = assay: Cytotoxicity against human PC-3 cells assessed as reduction in cell viability measured after 72 hrs by MTT assay; assay type: functional, cell-based; conditions: PC-3, 72 h
MDA-MB-435 [11] = assay: Cytotoxicity against human MDA-MB-435 cells assessed as reduction in cell viability measured after 24 hrs by MTT assay; assay type: functional, cell-based; conditions: MDA-MB-435, 24 h
A549 [12] = assay: Cytotoxicity against human A549 cells assessed as reduction in cell viability measured after 24 hrs by MTT assay; assay type: functional, cell-based; conditions: A549, 24 h
HCT-116 [13] = assay: Cytotoxicity against human HCT-116 cells assessed as reduction in cell viability measured after 24 hrs by MTT assay; assay type: functional, cell-based; conditions: HCT-116, 24 h
MCF7 [14] = assay: Antiproliferative activity against human MCF7 cells assessed as reduction in cell viability incubated for 24 hrs by MTT assay; assay type: functional, cell-based; conditions: MCF7, 24 h
HepG2 [15] = assay: Antiproliferative activity against human HepG2 cells assessed as reduction in cell viability incubated for 24 hrs by MTT assay; assay type: functional, cell-based; conditions: HepG2, 24 h
DU-145 = assay: Cytotoxicity against human DU-145 cells assessed as cell growth inhibition measured after 48 hrs by MTT assay; assay type: functional, cell-based; conditions: DU-145, 48 h
NCI-H460 = assay: Cytotoxicity against human NCI-H460 cells assessed as reduction in cell viability incubated for 48 hrs by MTT assay; assay type: functional, cell-based; conditions: NCI-H460, 48 h
MCF7 [16] = assay: Cytotoxicity against human MCF7 cells assessed as reduction in cell viability incubated for 48 hrs by MTT assay; assay type: functional, cell-based; conditions: MCF7, 48 h
HCT-15 = assay: Cytotoxicity against human HCT-15 cells assessed as reduction in cell viability incubated for 48 hrs by MTT assay; assay type: functional, cell-based; conditions: HCT-15, 48 h
SF-268 = assay: Cytotoxicity against human SF-268 cells assessed as reduction in cell viability incubated for 48 hrs by MTT assay; assay type: functional, cell-based; conditions: SF-268, 48 h
A549 [17] = assay: Antiproliferative activity against human A549 cells; assay type: functional, cell-based
MDA-MB-435 [18] = assay: Antiproliferative activity against human MDA-MB-435 cells; assay type: functional, cell-based
[19] = Solubility of compound in water; assay type: physicochemical
MCF7 [20] = assay: Antiproliferative activity against human MCF7 cells; assay type: functional, cell-based
[21] = Antiproliferative activity against human HUVEC cells; assay type: toxicity, cell-based
A549 [22] = assay: Antiproliferative activity against human A549 cells assessed as reduction in cell viability incubated for 48 hrs by MTT assay; assay type: functional, cell-based; conditions: A549, 48 h
HCT-116 [23] = assay: Antiproliferative activity against human HCT-116 cells assessed as reduction in cell viability incubated for 48 hrs by MTT assay; assay type: functional, cell-based; conditions: HCT-116, 48 h

With `CN1c2ccc(NCC3CCN(c4ncc(C(=O)NO)cn4)CC3)cc2C(=O)N2CCc3c([nH]c4ccc(O)cc34)C21` (configuration not stated) the IC50 (HCT-116 [1]) was 230 nM, the IC50 (Histone deacetylase 1) was 4 nM and the IC50 (Histone deacetylase 2) was 5 nM.

In the case of `O=C1c2ccccc2N(c2ccccc2)C2c3[nH]c4ccccc4c3CCN12` (configuration not stated), the IC50 (HCCLM9) is reported as 9820 nM, the IC50 (Huh-7) is reported as 740 nM and the IC50 (HepG2 [2]) is reported as 2390 nM.

Work on `CN1c2cc(N)ccc2C(=O)N2CCc3c([nH]c4ccccc34)C21` (configuration not stated) yielded an IC50 (MDA-MB-231) of 790 nM and an IC50 (SW-620) of 1280 nM.

In the case of `COc1ccc2c(c1)c1c(n2C(=O)c2cc(OC)c(OC)c(OC)c2)C2Oc3ccccc3C(=O)N2CC1` (configuration not stated), the IC50 (HGC-27) is reported as 6100 nM.

`CN1c2ccc(-c3ccnc(N4CCNCC4)c3)cc2C(=O)N2CCc3c([nH]c4ccccc34)C21` (configuration not stated) showed an IC50 (HCT-116 [3]) of 5940 nM, an IC50 (A549 [4]) of 6800 nM and an IC50 (MDA-MB-435 [5]) of 2780 nM.

With `CN1c2ccc(NCc3ccc(/C=C/C(=O)NO)cc3)cc2C(=O)N2CCc3c([nH]c4ccc(O)cc34)C21` (configuration not stated) the IC50 (HCT-116 [1]) was 180 nM, the IC50 (Histone deacetylase 1) was 18 nM and the IC50 (Histone deacetylase 2) was 230 nM.

Work on `CC(N)C(=O)Nc1ccc2[nH]c3c(c2c1)CCN1C(=O)c2ccccc2N(C)C31` (configuration not stated) yielded an IC50 (MCF7 [6]) of 520 nM.

Work on `CN1c2ccccc2C(=O)N2CCc3c([nH]c4ccc(N)cc34)C21` (configuration not stated) yielded an IC50 (MCF7 [6]) of 1800 nM and a solubility at 24 h [7] of 10 µg/mL (≈ 31.4 µM).

In the case of `CN1c2ccccc2C(=O)N2[C@H](C(=O)Nc3ccc(C(=O)Nc4ccccc4N)cc3)Cc3c([nH]c4ccccc34)[C@@H]12`, the IC50 (HCT-116 [8]) is reported as 1600 nM.

With `Cc1cc2c(s1)N(C)C1c3[nH]c4ccccc4c3CCN1C2=O` (configuration not stated) the IC50 (A549 [9]) was 10400 nM, the IC50 (PC-9) was 9460 nM and the IC50 (MCF7 [10]) was 9020 nM. For the same compound, the IC50 (PC-3) was 7770 nM.

Compound `CN1c2ccccc2C(=O)N2CCc3c(n(C(=O)c4ccc(Cl)cc4)c4ccc(O)cc34)C21` (configuration not stated) has an IC50 (MDA-MB-435 [11]) of less than 2 nM, an IC50 (A549 [12]) of 26600 nM and an IC50 (HCT-116 [13]) of 50 nM.

`CN1c2ccccc2C(=O)N2CCc3c([nH]c4ccccc34)C21` (configuration not stated) showed an IC50 (HGC-27) of 2280 nM, an IC50 (HCCLM9) of 1630 nM and an IC50 (Huh-7) of 780 nM. It also gave an IC50 (HepG2 [2]) of 21500 nM.

With `CN1c2ccccc2C(=O)N2CCc3c(n(S(=O)(=O)c4ccc([N+](=O)[O-])cc4)c4ccccc34)C21` (configuration not stated) the IC50 (MCF7 [14]) was 2680 nM and the IC50 (HepG2 [15]) was 18400 nM.

`CN1c2ccccc2C(=O)N2CCc3c([nH]c4ccc(NS(C)(=O)=O)cc34)C21` (configuration not stated) gave an IC50 (MCF7 [6]) of 190 nM.

With `COCCCCn1c2c(c3ccccc31)CCN1C(=O)c3ccccc3N(C)C21` (configuration not stated) the IC50 (DU-145) was less than 2000 nM, the IC50 (NCI-H460) was less than 2000 nM and the IC50 (MCF7 [16]) was less than 2000 nM. For the same compound, the IC50 (HCT-15) was less than 2000 nM and the IC50 (SF-268) was less than 2000 nM.

Compound `CN1c2ccccc2C(=O)N2CCc3c([nH]c4ccc(O)cc34)C21` (configuration not stated) has an IC50 (A549 [17]) of less than 3 nM, an IC50 (MDA-MB-435 [18]) of less than 3 nM and an IC50 (HCT-116 [1]) of less than 3 nM. It also gave a solubility [19] of 11 µg/mL (≈ 34.4 µM).

Compound `CN1c2ccccc2C(=O)N2CCc3c([nH]c4ccc(OC(=O)CCCC(=O)Oc5ccc6[nH]c7c(c6c5)CCN5C(=O)c6ccccc6N(C)C75)cc34)C21` (configuration not stated) has an IC50 (A549 [17]) of 730 nM, an IC50 (HCT-116 [1]) of 32 nM and an IC50 (MCF7 [20]) of 200 nM. For the same compound, the IC50 [21] was 580 nM.

Compound `CN1c2ccccc2C(=O)N2CCc3c([nH]c4ccc(OC(=O)CCC(=O)Oc5ccc6[nH]c7c(c6c5)CCN5C(=O)c6ccccc6N(C)C75)cc34)C21` (configuration not stated) has an IC50 (A549 [17]) of 680 nM, an IC50 (HCT-116 [1]) of 32 nM and an IC50 (MCF7 [20]) of 890 nM. For the same compound, the IC50 [21] was 210 nM.

Work on `CN1c2ccccc2C(=O)N2CCc3c([nH]c4c(Cl)cccc34)C21` (configuration not stated) yielded an IC50 (MDA-MB-435 [18]) of less than 3 nM, an IC50 (A549 [22]) of 2550 nM and an IC50 (HCT-116 [23]) of less than 3 nM.

Work on `CN1c2ccc(NC(=O)CBr)cc2C(=O)N2CCc3c([nH]c4ccccc34)C21` (configuration not stated) yielded an IC50 (HCT-116 [3]) of 28000 nM, an IC50 (A549 [4]) of 154000 nM and an IC50 (MDA-MB-435 [5]) of 22700 nM.

Compound `CN1c2ccccc2C(=O)N2CCc3c([nH]c4c([N+](=O)[O-])cc([N+](=O)[O-])cc34)C21` (configuration not stated) has an IC50 (MDA-MB-435 [18]) greater than 200000 nM, an IC50 (A549 [22]) greater than 200000 nM and an IC50 (HCT-116 [23]) of less than 200000 nM.

With `Cc1ccc2[nH]c3c(c2c1)CCN1C(=O)c2ccccc2N(c2ccccc2)C31` (configuration not stated) the IC50 (HCCLM9) was 240 nM, the IC50 (Huh-7) was 440 nM and the IC50 (HepG2 [2]) was 920 nM.
